The values that follow come from a melting point compilation (Tetko et al.; mined from patent text by program, amines drawn as free bases though some values may be those of a salt).

Broadly, the melting point is the temperature of the solid-liquid transition. `CS(=O)(=O)Nc1cccc(Nc2nc(NC3CCC3)c3nc[nH]c3n2)c1` yielded a melting point of 142 to 146 °C.
Regarding `O=C1NC(C(=O)NCCO[N+](=O)[O-])C(c2cccs2)S1` (stereo not drawn), the melting point lay within 120 to 122 °C.
For `Cc1nnc2n1-c1sc(C(N)=O)cc1C(c1ccccc1Cl)=NC2`, the melting point is 230 to 232 °C.
The result for `CN(c1cccc2cc(C(=O)NCC(C)(CN3CCOCC3)SCc3ccccc3)[nH]c12)S(=O)(=O)c1cccs1` (stereo not drawn) reads 150 to 152 °C.
`COc1ccc(-c2ccc3c(c2)C=C(C(=O)Nc2ccc(CN(C)C4CCOCC4)cc2)CCS3(=O)=O)c(OC)c1` returned a melting point of 175 to 178 °C.
Under `N#Cc1ccc(NC(=O)c2cc3ccccc3cc2O)c(OC(F)(F)F)c1` stands 248 °C.
The result for `CSc1cc(=O)c2occc2s1` reads 149 to 150 °C; that for `CC(C)(C)OC(=O)COc1cc(NC(=O)OC(C)(C)C)c([N+](=O)[O-])cc1I`, 103 °C; that for `CC(=O)N=C1C(OC(C)=O)=C(NC(C)=O)C2CC(=O)CC1C2NC(C)=O` (stereo not drawn), 174 to 176 °C.
Take `NC(=O)NC(=O)c1ccc2ccccc2c1`: the melting point is 207 to 208 °C.
The result for `Cc1c(F)c(Oc2cccnc2)nc(Oc2cccc(C(=N)N)c2)c1F` reads 213 to 214 °C; that for `CC(C)(NC(=O)c1cc2c(n(CC3CCCCC3)c1=O)CCCCCC2)C(=O)O`, 177 to 180 °C.
Under `O=C1c2cc(Cl)c(Cl)cc2C(O)N1CCCl` (stereo not drawn) stands 147 to 149 °C; under `CCCOc1cc(CCCOc2c(CC(=O)O)cccc2OC)n(Cc2ccc(C(F)(F)F)cc2)n1`, 122 to 123 °C; under `CC1CC2(OC3CC4C5CCC6CC(O)CCC6(C)C5C(=O)CC4(C)C3C2(C)O)OC1(C)C` (stereo not drawn), 206 to 208 °C.
`CCn1nc2c(N)nc3c(c2c1CC(C)C)CCCC3` returned a melting point of 206 to 207 °C.
On to `Cc1c2c(c(C(C)c3ccc(C(C)C)cc3)c(C)c1NC(=O)CC(C)(C)C)OCC2` (stereo not drawn), for which the melting point is 189 to 190 °C.
The result for `Cn1cncc1C(O)(c1cccc(I)c1)c1ccc2c(c1)c(-c1cccc(Cl)c1)cc(=O)n2C` (stereo not drawn) reads 226 °C.
In turn, `Cc1sc2ncc(C(O)CCc3ccccc3)n2c1C` (stereo not drawn) came in with a melting point of 153 to 154 °C.
Under `Cc1ccnc2c(Oc3ccccc3NS(=O)(=O)c3ccc(Cl)cc3)cccc12` stands 123 to 125 °C; under `N#Cc1cc(C(=O)NNC(=O)c2occc2-c2cccc(OCc3ccccc3)c2)ccc1O`, 190 to 195 °C.
Under `CCOC(=O)c1c(N)c(C)c(C)n1C` stands 63 to 64 °C.
For the molecule `C=C(C)C(=O)NCCC(=O)Nc1cc(Cl)c(C)c(Cl)c1O`, the melting point lay within 150 to 152 °C.
The result for `CC(O)(C(=O)O)c1ccc2c(c1)Cc1ccccc1-2` (stereo not drawn) reads 164 to 168 °C.
Molecule `CCCOc1c(OC)cc(C(=O)CCC(=O)c2cc(OC)c(OC)c(OC)c2)cc1SC` displayed a melting point of 113 to 114 °C.
`CC(C(=O)CCc1ccc(OC(F)(F)F)cc1)n1cncn1` (stereo not drawn) yielded a melting point of 58 °C.
Under `CCCCCc1c(-c2ccc3cc(OCC#N)ccc3c2)n(Cc2ccccc2)c2ccccc12` stands 109 to 112 °C.
Under `CCS(=O)(=O)N1CCSc2cccc(Cl)c2C1` stands 126 to 128 °C.
The result for `Cc1ccc(S(=O)(=O)OCC2C(=O)Nc3ccccc3SC2c2ccccc2)cc1` (stereo not drawn) reads 215 °C; that for `Cc1cc(Cl)cc(C(=O)NC(C)C2CC2)c1NC(=O)c1cc(Br)nn1-c1ncccc1Cl` (stereo not drawn), 182 to 183 °C.
`COC(=O)c1ccc(-c2nc(-c3cccc(C(F)(F)F)c3)co2)cc1` displayed a melting point of 134 to 135 °C.
The result for `O=C1c2cccc(Br)c2C(=O)N1CCCn1cncn1` reads 113 to 115 °C; that for `O=C1C(=Cc2sccc2Oc2ccccc2)CCc2cc(OCCn3ccnc3)ccc21`, 135 to 137 °C.
Under `COC(=O)/C=C(\C)c1ccc(OCc2nc(-c3ccccc3)oc2C)cc1` stands 125 to 126 °C; under `O=CNc1nc(-c2cccnc2)c(Cl)s1`, 229 °C; under `CC1COc2c(F)c(F)cc3c(=O)[nH]c(=O)n1c23` (stereo not drawn), 259 to 261 °C.
The result for `CCOC(=O)c1ccc(F)cn1` reads 61 to 63 °C; that for `COc1ccc(OC)c2c1[C@H](C=O)c1ccccc1[C@@H]2C=O`, 129 to 132 °C.
`C=Cc1nc2cc(-c3ccc(C#N)cc3)ccc2o1` yielded a melting point of 143 to 144 °C.
Under `CCOC(=O)C(=NOC)c1csc(NC(=O)OCC(Cl)(Cl)Cl)n1` stands 125 to 128 °C.
The result for `NC(=O)CC[C@H](NC(=O)OCc1ccccc1)C(=O)N[C@@H](Cc1ccc(O)cc1)C(=O)OCc1ccccc1` reads 165 to 170 °C; that for `CC(=O)NCc1ccc2c(c1)N(C1CCN(CCc3ccc(F)cc3)CC1)CC2(C)C`, 131 to 133 °C; that for `CCCCCc1nc(C)c(C(=O)OCC)n1Cc1ccc2oc(-c3ccccc3-c3nnn[nH]3)c(Br)c2c1`, 103 to 104 °C.
The result for `COc1ccc2c(c1)CCC1CCN=C21` (stereo not drawn) reads 102 to 104 °C.
In turn, `CN1CCOc2ccc(S(=O)(=O)n3c(Cc4ccc(C(=O)O)s4)cc4cc(C(F)(F)F)ccc43)cc21` yielded a melting point of 120 to 144 °C.
Under `N#Cc1nn(Cc2ccccc2)c2ccccc12` stands 91 °C; under `CCCCn1nc(C(F)(F)CCC)nc1Cc1ccc(-c2ccccc2-c2nnn[nH]2)nc1`, 135 to 136 °C.
Regarding `CN1CCN=C(c2ccc([N+](=O)[O-])cc2)C1=O`, the melting point lay in the range of 191 to 192 °C.
The result for `CC(=CC#N)NCc1ccc(Cl)nc1` reads 95 to 98 °C; that for `C#CCc1c(C)nc2c(NCc3ccccc3C)cccn12`, 126 to 128 °C; that for `CCOC(=O)CN(CCOc1cc2cc3ncc(C#N)c(Nc4cc(OC)c(Cl)cc4C)c3cc2cc1OCC)CC(=O)OCC`, 85 to 86 °C.
`COc1ccc(COC(=O)C2N(c3c(C)cccc3C)C(=N)C(C)N2c2c(C)cccc2C)cc1` (stereo not drawn) registered a melting point of 135 to 137 °C.
The result for `O=C(C(=O)C12CC3CC(CC(C3)C1)C2)c1ccc(OC(F)F)cc1` reads 118 to 120 °C; that for `Cc1c(CO)ncc(Br)c1N1CCCCC1`, 80 to 81 °C; that for `O=C(O)c1cc(-n2c(-c3ccccc3)cc3c2CCc2cc(Cl)ccc2-3)ccc1O`, 249 to 251 °C.
In the case of `N=C(NO)c1nn(-c2c(Cl)cc(C(F)(F)F)cc2Cl)c(C=O)c1SC(F)(F)F`, the melting point lay in the range of 72 to 75 °C.
Under `Cc1cc(O)c(C)c(Br)c1C` stands 86 to 88 °C; under `CC1(C)CCC(C)(C)c2cc(-c3cc(Br)cc(C(=O)O)c3)ccc21`, 165 °C.
The result for `CCC(=O)Oc1cc(OC)cc(OC)c1C(=O)C=Cc1ccccc1` reads 116 to 117 °C.
Under `Brc1n[nH]c2ccccc12` stands 136 °C; under `CC(C)(C)OC(=O)N1CCN(C(=O)OC(C)(C)C)C(C(O)(Cc2ccccc2)Cc2ccccc2)C1` (stereo not drawn), 150 °C; under `CC(C)(Oc1ccc(Cl)cc1)C(=O)NCCO[N+](=O)[O-]`, 81 to 82 °C.
`CC(=O)c1ccc2c(c1)c(=O)c(C(=O)O)cn2Cc1ccc(F)cc1` had a melting point of 206 to 208 °C.
